Laboratory results: patent US12157746B2, “Tetrahydro-1H-pyrazino[2,1-a]isoindolylquinoline compounds for the treatment of autoimmune disease” (F. HOFFMANN-LA ROCHE AG, priority 2018, dated 2024)

Target: T1, human TLR8 (Homo sapiens, UniProt Q9NR97)
T1 sequence (Q9NR97 27-1041): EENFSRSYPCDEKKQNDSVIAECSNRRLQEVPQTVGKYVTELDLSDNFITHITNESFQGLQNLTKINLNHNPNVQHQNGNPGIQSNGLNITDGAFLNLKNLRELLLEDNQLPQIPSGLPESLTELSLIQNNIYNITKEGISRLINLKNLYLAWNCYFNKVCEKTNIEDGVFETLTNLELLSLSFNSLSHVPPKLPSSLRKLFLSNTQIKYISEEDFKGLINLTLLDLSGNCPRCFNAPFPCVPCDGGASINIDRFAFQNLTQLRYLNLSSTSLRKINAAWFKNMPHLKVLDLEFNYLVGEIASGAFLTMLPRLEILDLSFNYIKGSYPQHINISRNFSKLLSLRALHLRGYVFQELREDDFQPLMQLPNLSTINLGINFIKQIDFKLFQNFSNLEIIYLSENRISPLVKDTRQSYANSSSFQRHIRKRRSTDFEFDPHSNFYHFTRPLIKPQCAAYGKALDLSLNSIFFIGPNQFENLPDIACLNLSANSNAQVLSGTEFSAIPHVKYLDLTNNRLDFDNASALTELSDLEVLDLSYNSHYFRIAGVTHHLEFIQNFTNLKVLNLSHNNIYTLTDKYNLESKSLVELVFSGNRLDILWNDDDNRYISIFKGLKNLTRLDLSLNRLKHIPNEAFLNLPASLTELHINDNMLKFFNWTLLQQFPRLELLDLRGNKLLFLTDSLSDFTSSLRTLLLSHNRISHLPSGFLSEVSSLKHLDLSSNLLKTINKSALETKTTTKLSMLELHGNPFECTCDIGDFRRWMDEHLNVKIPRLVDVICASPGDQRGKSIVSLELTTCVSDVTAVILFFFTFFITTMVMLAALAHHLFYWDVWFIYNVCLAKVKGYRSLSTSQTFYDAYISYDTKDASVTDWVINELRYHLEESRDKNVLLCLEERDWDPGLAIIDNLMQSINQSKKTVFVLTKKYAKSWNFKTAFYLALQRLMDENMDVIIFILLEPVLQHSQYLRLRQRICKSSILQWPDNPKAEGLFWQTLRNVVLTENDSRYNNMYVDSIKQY
Test: HEK293-Blue-hTLR-8 cells assay
Assay type: cell-based
Conditions: HEK293-Blue-hTLR8 cells, R848 stimulation, 20 hrs, SEAP reporter; read-out: HEK/hTLR8 IC50
Text: HEK293-Blue-hTLR-8 Cells Assay:
A stable HEK293-Blue-hTLR-8 cell line was purchased from InvivoGen (Cat. #: hkb-htlr8, San Diego, California, USA). These cells were originally designed for studying the stimulation of human TLR8 by monitoring the activation of NF-κB. A SEAP (secreted embryonic alkaline phosphatase) reporter gene was placed under the control of the IFN-β minimal promoter fused to five NF-κB and AP-1-binding sites. The SEAP was induced by activating NF-κB and AP-1 via stimulating HEK-Blue hTLR8 cells with TLR8 ligands. Therefore the reporter expression was declined by TLR8 antagonist under the stimulation of a ligand, such as R848, for incubation of 20 hrs. The cell culture supernatant SEAP reporter activity was determined using QUANTI-Blue™kit (Cat. #: rep-qb1, Invivogen, San Diego, Ca, USA) at a wavelength of 640 nm, a detection medium that turns purple or blue in the presence of alkaline phosphatase.
HEK293-Blue-hTLR8 cells were incubated at a density of 250,000-450,000 cells/mL in a volume of 170 μL in a 96-well plate in Dulbecco's Modified Eagle's medium (DMEM) containing 4.5 g/L glucose, 50 U/mL penicillin, […], […], 2 mM L-glutamine, 10% (v/v) heat-inactivated fetal bovine serum with addition of 20 μL test compound 1n a serial dilution in the presence of final DMSO at 1% and 10 μL of 60 uM R848 in above DMEM, perform incubation under 37° C. in a CO2 incubator for 20 hrs. Then 20 μL of the supernatant from each well was incubated with 180 μL Quanti-blue substrate solution at 37° C. for 2 hrs and the absorbance was read at 620-655 nm using a spectrophotometer. The signaling pathway that TLR8 activation leads to downstream NF-κB activation has been widely accepted, and therefore similar reporter assay was modified for evaluating TLR8 antagonist.

IC50 | Structure (SMILES)
< 3.2 nM | C[C@@H]1CN(c2ccc(C#N)c3ncccc23)C[C@@H]2c3ccc(N4CCNCC(O)C4)cc3CN12 (stereo partly drawn) [Example 15, 5-[(4R,10bS)-8-(6-hydroxy-1,4-diazepan-1-yl)-4-methyl-3,4,6,10b-tetrahydro-1H-pyrazino[2,1-a]isoindol-2-yl]quinoline-8-carbonitrile]
< 3.2 nM | C[C@@H]1CN(c2ccc(C#N)c3ncccc23)C[C@@H]2c3ccc(C4CNC4)cc3CN12 [Example 29, 5-[(4R,10bS)-8-(azetidin-3-yl)-4-methyl-3,4,6,10b-tetrahydro-1H-pyrazino[2,1-a]isoindol-2-yl]quinoline-8-carbonitrile]
< 3.2 nM | CO[C@@H]1CNC[C@H]1Nc1ccc2c(c1)CN1[C@H](C)CN(c3ccc(C#N)c4ncccc34)C[C@H]21 [Example 34, 5-[(4R,10bS)-8-[[(3R,4R)-4-methoxypyrrolidin-3-yl]amino]-4-methyl-3,4,6,10b-tetrahydro-1H-pyrazino[2,1-a]isoindol-2-yl]quinoline-8-carbonitrile]
< 3.2 nM | C[C@@H]1CN(c2ccc(C#N)c3ncccc23)C[C@@H]2c3ccc(N4CCNC[C@@H]4CO)cc3CN12 [Example 10, 5-[(4R,10bS)-8-[(2R)-2-(hydroxymethyl)piperazin-1-yl]-4-methyl-3,4,6,10b-tetrahydro-1H-pyrazino[2,1-a]isoindol-2-yl]quinoline-8-carbonitrile]
16.5 nM | C[C@@H]1CN(c2ccc(C#N)n3nccc23)C[C@@H]2c3ccc(N4CC5CNCC(C4)O5)cc3CN12 [Example 107, 4-[(4R,10bS)-4-methyl-8-(9-oxa-3,7-diazabicyclo[3.3.1]nonan-3-yl)-3,4,6,10b-tetrahydro-1H-pyrazino[2,1-a]isoindol-2-yl]pyrazolo[1,5-a]pyridine-7-carbonitrile]
2 nM | CO[C@@H]1CN(c2ccc3c(c2)CN2[C@H](C)CN(c4ccc(C#N)n5ncc(F)c45)C[C@H]32)C[C@H]1N [Example 113, 4-[(4R,10bS)-8-[(3R,4R)-3-amino-4-methoxy-pyrrolidin-1-yl]-4-methyl-3,4,6,10b-tetrahydro-1H-pyrazino[2,1-a]isoindol-2-yl]-3-fluoro-pyrazolo[1,5-a]pyridine-7-carbonitrile]
4.1 nM | CO[C@@H]1CN(c2ccc3c(c2)CN2[C@H](C)CN(c4ccc(C#N)n5nccc45)C[C@H]32)CC[C@@H]1N [Example 105, 4-[(4R,10bS)-8-[(3R,4S)-4-amino-3-methoxy-1-piperidyl]-4-methyl-3,4,6,10b-tetrahydro-1H-pyrazino[2,1-a]isoindol-2-yl]pyrazolo[1,5-a]pyridine-7-carbonitrile]
< 3.2 nM | C[C@@H]1CN(c2ccc(C#N)c3ncccc23)C[C@@H]2c3ccc(N4CCNC[C@@](C)(O)C4)cc3CN12 [Example 55B, 5-[(4R,10bS)-8-[(6R)-6-hydroxy-6-methyl-1,4-diazepan-1-yl]-4-methyl-3,4,6,10b-tetrahydro-1H-pyrazino[2,1-a]isoindol-2-yl]quinoline-8-carbonitrile]
< 3.2 nM | C[C@@H]1CN(c2ccc(C#N)c3ncccc23)C[C@@H]2c3ccc(C4CCNCC4)cc3CN12 [Example 9, 5-[(4R,10bS)-4-methyl-8-(4-piperidyl)-3,4,6,10b-tetrahydro-1H-pyrazino[2,1-a]isoindol-2-yl]quinoline-8-carbonitrile]
< 3.2 nM | C[C@@H]1CN(c2ccc(C#N)c3ncccc23)C[C@@H]2c3ccc(N4CCNCC(C)(O)C4)cc3CN12 (stereo partly drawn) [Example 55, 5-[(4R,10S)-8-(6-hydroxy-6-methyl-1,4-diazepan-1-yl)-4-methyl-3,4,6,10b-tetrahydro-1H-pyrazino[2,1-a]isoindol-2-yl]quinoline-8-carbonitrile]
5 nM | C[C@@H]1CN(c2ccc(C#N)n3nccc23)C[C@@H]2c3ccc(N4C[C@@H](N)[C@H](O)C4)cc3CN12 [Example 110, 4-[(4R,10bS)-8-[(3R,4R)-3-amino-4-hydroxy-pyrrolidin-1-yl]-4-methyl-3,4,6,10b-tetrahydro-1H-pyrazino[2,1-a]isoindol-2-yl]pyrazolo[1,5-a]pyridine-7-carbonitrile]
< 3.2 nM | CO[C@H]1CN(c2ccc3c(c2)CN2[C@H](C)CN(c4ccc(C#N)c5ncccc45)C[C@H]32)C[C@@H]1N (relative stereo) [Example 16, 5-[(4R,10bS)-8-[trans-3-amino-4-methoxy-pyrrolidin-1-yl]-4-methyl-3,4,6,10b-tetrahydro-1H-pyrazino[2,1-a]isoindol-2-yl]quinoline-8-carbonitrile]
< 3.2 nM | C[C@@H]1CN(c2ccc(C#N)n3nccc23)C[C@@H]2c3ccc(N4CCNCC4)cc3CN12 [Example 5, 4-[(4R,10bS)-4-methyl-8-piperazin-1-yl-3,4,6,10b-tetrahydro-1H-pyrazino[2,1-a]isoindol-2-yl]pyrazolo[1,5-a]pyridine-7-carbonitrile]
< 3.2 nM | C[C@@H]1CN(c2ccc(C#N)c3ncccc23)C[C@@H]2c3ccc(N[C@H]4CNC[C@@H]4F)cc3CN12 [Example 31, 5-[(4R,10bS)-8-[[(3S,4S)-4-fluoropyrrolidin-3-yl]amino]-4-methyl-3,4,6,10b-tetrahydro-1H-pyrazino[2,1-a]isoindol-2-yl]quinoline-8-carbonitrile]
0.6 nM | C[C@@H]1CN(c2ccc(C#N)c3ncccc23)C[C@@H]2c3ccc(N4C[C@@H](N)[C@@H](F)C4)cc3CN12 [Example 47, 5-[(4R,10bS)-8-[(3R,4S)-3-amino-4-fluoro-pyrrolidin-1-yl]-4-methyl-3,4,6,10b-tetrahydro-1H-pyrazino[2,1-a]isoindol-2-yl]quinoline-8-carbonitrile]
5.6 nM | CO[C@@H]1CN(c2ccc3c(c2)CN2[C@H](C)CN(c4ccc(C#N)n5nccc45)C[C@H]32)C[C@H]1N [Example 94, 4-[(4R,10bS)-8-[(3R,4R)-3-amino-4-methoxy-pyrrolidin-1-yl]-4-methyl-3,4,6,10b-tetrahydro-1H-pyrazino[2,1-a]isoindol-2-yl]pyrazolo[1,5-a]pyridine-7-carbonitrile]
< 3.2 nM | COC12CNCC1CN(c1ccc3c(c1)CN1[C@H](C)CN(c4ccc(C#N)c5ncccc45)C[C@H]31)C2 (stereo partly drawn) [Example 41, 5-[(4R,10bS)-8-(3a-methoxy-1,2,3,4,6,6a-hexahydropyrrolo[3,4-c]pyrrol-5-yl)-4-methyl-3,4,6,10b-tetrahydro-1H-pyrazino[2,1-a]isoindol-2-yl]quinoline-8-carbonitrile]
0.6 nM | C[C@@H]1CN(c2ccc(C#N)c3ncccc23)C[C@@H]2c3ccc(N4C[C@H](N)[C@@H](F)C4)cc3CN12 [Example 49, 5-[(4R,10bS)-8-[(3S,4S)-3-amino-4-fluoro-pyrrolidin-1-yl]-4-methyl-3,4,6,10b-tetrahydro-1H-pyrazino[2,1-a]isoindol-2-yl]quinoline-8-carbonitrile]
< 3.2 nM | CN[C@@H]1CN(c2ccc3c(c2)CN2[C@H](C)CN(c4ccc(C#N)c5ncccc45)C[C@H]32)C[C@H]1O [Example 43, 5-[(4R,10bS)-4-methyl-8-[(3R,4R)-3-hydroxy-4-(methylamino)pyrrolidin-1-yl]-3,4,6,10b-tetrahydro-1H-pyrazino[2,1-a]isoindol-2-yl]quinoline-8-carbonitrile]
